Measured values from PubChem BioAssay AID588808 (Broad Institute, 2011).
Activity calls are given as the source filed them.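 The calls were made as follows: active = Aurora B inhibition with potency within ten times the top dose, in every repeat test; inconclusive = repeat tests disagree in their calls; inactive = every repeat test inactive.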

biological target: Aurora kinase B (Homo sapiens) (UniProt Q96GD4); experiment: Aurora B kinase inhibition counter-screen, dose response, counter-screen for STK33 inhibitor project, biochemical, scintillation, dry powder, set 3 (AID 588808); settings: Recombinant Aurora B, 33P-ATP filter-binding scintillation
Sequence (Q96GD4 whole entry, looked up): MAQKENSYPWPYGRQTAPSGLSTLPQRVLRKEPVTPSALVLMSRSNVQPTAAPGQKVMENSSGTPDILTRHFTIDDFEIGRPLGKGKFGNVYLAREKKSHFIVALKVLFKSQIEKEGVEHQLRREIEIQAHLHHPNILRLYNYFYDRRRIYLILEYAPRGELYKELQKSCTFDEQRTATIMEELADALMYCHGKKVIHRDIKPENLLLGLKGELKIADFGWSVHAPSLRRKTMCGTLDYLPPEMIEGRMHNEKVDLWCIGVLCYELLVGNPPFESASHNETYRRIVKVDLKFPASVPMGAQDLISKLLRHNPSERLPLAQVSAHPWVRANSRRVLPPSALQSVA

AC50 [µM]	SMILES
7.79	CC(C)c1ccc(NC(=O)c2cccs2)c(-c2nc3ccccc3[nH]c2=O)c1

same assay, conditions: Recombinant Aurora B, 33P-ATP filter-binding scintillation; at 10 µM (top of the series)

SMILES	activity change, negative = inhibition
O=C(Nc1ccc(Cl)cc1-c1nc2ccccc2[nH]c1=O)c1cccs1	inactive
O=C(Nc1cc(Cl)ccc1-c1nc2ccccc2[nH]c1=O)c1cccs1	inactive
O=C(Nc1cc(F)ccc1-c1nc2ccccc2[nH]c1=O)c1cccs1	inactive
COc1ccc(NC(=O)c2cccs2)c(-c2nc3ccccc3[nH]c2=O)c1	inactive
O=C(Nc1ccc(OC(F)(F)F)cc1-c1nc2ccccc2[nH]c1=O)c1cccs1	inactive

Results, then the molecule that gave them:

activity change, negative = inhibition	SMILES
inactive	O=C(Nc1ccccc1-c1nc2ccccc2[nH]c1=O)c1cccc(Cl)c1
inactive	O=C(Nc1ccccc1-c1nc2ccccc2[nH]c1=O)c1cccs1
inactive	O=C(Nc1ccccc1-c1nc2ccccc2[nH]c1=O)c1cccnc1
inactive	O=C(Nc1ccccc1-c1nc2ccccc2[nH]c1=O)c1ccc(F)cc1
inactive	O=C(Nc1ccccc1-c1nc2ccccc2[nH]c1=O)c1ccccn1
inactive	O=C(Nc1ccc(F)cc1-c1nc2ccccc2[nH]c1=O)c1cccs1
inactive	COc1ccc(C(=O)Nc2ccccc2-c2nc3ccccc3[nH]c2=O)cc1
